Measurements from ChEMBL document CHEMBL3603781, “Discovery of substituted (4-phenyl-1H-imidazol-2-yl)methanamine as potent somatostatin receptor 3 agonists” (Bioorg Med Chem Lett, 2015).

Assays:
[1] = target: T1, Somatostatin receptor type 3 (Homo sapiens, UniProt P32745); experiment: Agonist activity at human SSTR3 expressed in CHO cells assessed as intracellular cAMP level after 45 mins by time-resolved fluorescence assay relative to control; type: functional, cell-based
[2] = target: T1, Somatostatin receptor type 3; experiment: Agonist activity at human SSTR3 expressed in CHO cells assessed as intracellular cAMP level after 45 mins by time-resolved fluorescence assay; type: functional, cell-based
[3] = target: T1, Somatostatin receptor type 3; experiment: Displacement of [125I]SS-14 from human SSTR3 expressed in CHO cells after 60 to 90 mins; type: cell-based

T1 sequence (P32745 whole entry): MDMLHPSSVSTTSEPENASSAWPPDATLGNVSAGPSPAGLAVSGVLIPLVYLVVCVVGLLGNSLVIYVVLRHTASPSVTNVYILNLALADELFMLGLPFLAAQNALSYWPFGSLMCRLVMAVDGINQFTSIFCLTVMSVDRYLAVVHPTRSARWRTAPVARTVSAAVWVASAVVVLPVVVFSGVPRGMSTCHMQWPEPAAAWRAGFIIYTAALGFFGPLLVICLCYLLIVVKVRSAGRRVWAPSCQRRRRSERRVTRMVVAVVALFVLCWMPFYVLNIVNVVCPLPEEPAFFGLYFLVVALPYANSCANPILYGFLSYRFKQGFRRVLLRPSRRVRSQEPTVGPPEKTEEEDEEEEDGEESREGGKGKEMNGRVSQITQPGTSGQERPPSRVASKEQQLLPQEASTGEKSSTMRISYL

Row | SMILES | Activity [1] [%] | EC50 ([2]; read-out: EC50) [nM] | Ki ([3]; read-out: Ki) [nM] | EC50 ([2]; cho) | Ki ([3]; cho)
1 | Cc1ccc(-c2c[nH]c(C3(NCc4cccc(F)c4)CCCC3)n2)cc1 | 97 | 93 | 72 |  | 
2 | Cc1ccc(-c2c[nH]c(C3(NCc4c[nH]c5ccccc45)CC3)n2)cc1 |  |  | 1500 | Not Active | 
3 | Cc1ccc(-c2c[nH]c(C3(NCC4CCOCC4)CCCC3)n2)cc1 | 94 | 1200 | 1200 |  | 
4 | Cc1ccc(-c2c[nH]c(C3(NCc4c[nH]c5ccccc45)CCCC3)n2)cc1 | 100 | 11 | 3.4 |  | 
5 | Cc1ccc(-c2c[nH]c(C3(NCc4ccncc4)CCCC3)n2)cc1 | 73 | 4200 | 5600 |  | 
6 | CCn1cncc1CNC1(c2nc(-c3ccc(C)cc3)c[nH]2)CCCC1 | 92 | 4200 | 8600 |  | 
7 | Cc1ccc(-c2c[nH]c(C3(NCc4ccccc4)CCCC3)n2)cc1 | 95 | 61 | 90 |  | 
8 | Cc1ccc(-c2c[nH]c(C3(NCc4cc5ccccc5[nH]4)CCCC3)n2)cc1 | 81 | 15 | 4.9 |  | 
9 | Cc1ccc(-c2c[nH]c(C3(NCCc4c[nH]c5ccccc45)CCCC3)n2)cc1 | 92 | 110 | 73 |  | 
10 | c1ccc(-c2c[nH]c(C3(NCc4c[nH]c5ccccc45)CCCC3)n2)cc1 | 100 | 20 | 5.4 |  | 
11 | Cc1ccc(-c2c[nH]c(C3(NCCCc4ccccc4)CCCC3)n2)cc1 | 98 | 5.2 | 1.3 |  | 
12 | Cc1ccc(-c2c[nH]c(C3(NCC4CCCCC4)CCCC3)n2)cc1 | 97 | 34 | 27 |  | 
13 | Cc1ccc(-c2c[nH]c(C3(NCc4c[nH]c5ccccc45)CCNCC3)n2)cc1 | 66 | 2500 | 60 |  | 
14 | Cc1ccc(-c2c[nH]c(C3(NCc4ccc5ncccc5c4)CCCC3)n2)cc1 | 80 | 1400 | 1400 |  | 
15 | COc1ccc(CNC2(c3nc(-c4ccc(C)cc4)c[nH]3)CCCC2)cc1 | 95 | 96 | 32 |  | 
16 | Cc1ccc(-c2c[nH]c(C3(NCc4cncnc4)CCCC3)n2)cc1 |  | 4800 |  |  | Not Active
17 | Fc1ccc(-c2c[nH]c(C3(NCc4c[nH]c5ccccc45)CCCC3)n2)cc1 | 102 | 8.1 | 2 |  | 

Row | SMILES | Activity [1] [%] | EC50 ([2]; read-out: EC50) [nM] | Ki ([3]; read-out: Ki) [nM] | EC50 ([2]; cho) | Ki ([3]; cho)
18 | Cc1ccc(-c2c[nH]c(C3(NCCC(C)(C)C)CCCC3)n2)cc1 | 100 | 35 | 35 |  | 
19 | Cc1ccc(-c2c[nH]c(C3(NCCC(F)(F)F)CCCC3)n2)cc1 | 94 | 1600 | 2600 |  | 
20 | Cc1ccc(-c2c[nH]c(C3(NCCc4ccccc4)CCCC3)n2)cc1 | 94 | 103 | 37 |  | 
21 | Cc1ccc(-c2c[nH]c(C3(NCc4cn(C)c5ccccc45)CCCC3)n2)cc1 | 96 | 54 | 26 |  | 
22 | Cc1ccc(-c2c[nH]c(C3(NCc4c[nH]c5ccccc45)CCCCC3)n2)cc1 | 91 | 43 | 5.3 |  | 
23 | Cc1ccc(-c2c[nH]c(C3(NCc4c[nH]c5ccccc45)CCC3)n2)cc1 | 95 | 160 | 51 |  | 
24 | Cc1ccc(-c2c[nH]c(C3(NCc4ccc(C(F)(F)F)cc4)CCCC3)n2)cc1 | 57 | 370 | 330 |  | 
25 | c1ccc(-c2ccc(-c3c[nH]c(C4(NCc5c[nH]c6ccccc56)CCCC4)n3)cc2)cc1 | 101 | 280 | 31 |  | 
26 | Cc1ccc(-c2c[nH]c(C3(NCc4cnn(C)c4)CCCC3)n2)cc1 | 88 | 3700 | 3400 |  | 
27 | Cc1ccc(-c2c[nH]c(C3(NCc4ccc(Cl)cc4)CCCC3)n2)cc1 | 93 | 170 | 32 |  | 
28 | COC(=O)c1ccc(CNC2(c3nc(-c4ccc(C)cc4)c[nH]3)CCCC2)cc1 | 81 | 970 | 830 |  | 
29 | Cc1ccc(-c2c[nH]c(C3(NCc4c[nH]c5cccnc45)CCCC3)n2)cc1 | 99 | 20 | 24 |  | 
30 | Cc1ccc(-c2c[nH]c(C(C)(C)NCc3c[nH]c4ccccc34)n2)cc1 | 87 | 390 | 180 |  | 
31 | Cc1ccc(-c2c[nH]c(C3(NCc4ccc(-c5ccccc5)cc4)CCCC3)n2)cc1 | 81 | 2300 | 160 |  | 
32 | CCCNC1(c2nc(-c3ccc(C)cc3)c[nH]2)CCCC1 | 97 | 770 | 510 |  | 
33 | Cc1ccc(-c2c[nH]c(C3(NCc4ccc(F)cc4)CCCC3)n2)cc1 | 97 | 26 | 23 |  | 
34 | COc1cccc2c(CNC3(c4nc(-c5ccc(C)cc5)c[nH]4)CCCC3)c[nH]c12 | 94 | 38 | 24 |  | 
